This passage reports IC50 results from ChEMBL document CHEMBL3638498, “Pharmaceutical compounds” (2014).

Broadly, the IC50 is the point on the concentration scale where inhibition reaches its midpoint.

For the assay, the target named is T1, Serine/threonine-protein kinase Chk1 (Homo sapiens, UniProt O14757).
T1 sequence (O14757 whole entry): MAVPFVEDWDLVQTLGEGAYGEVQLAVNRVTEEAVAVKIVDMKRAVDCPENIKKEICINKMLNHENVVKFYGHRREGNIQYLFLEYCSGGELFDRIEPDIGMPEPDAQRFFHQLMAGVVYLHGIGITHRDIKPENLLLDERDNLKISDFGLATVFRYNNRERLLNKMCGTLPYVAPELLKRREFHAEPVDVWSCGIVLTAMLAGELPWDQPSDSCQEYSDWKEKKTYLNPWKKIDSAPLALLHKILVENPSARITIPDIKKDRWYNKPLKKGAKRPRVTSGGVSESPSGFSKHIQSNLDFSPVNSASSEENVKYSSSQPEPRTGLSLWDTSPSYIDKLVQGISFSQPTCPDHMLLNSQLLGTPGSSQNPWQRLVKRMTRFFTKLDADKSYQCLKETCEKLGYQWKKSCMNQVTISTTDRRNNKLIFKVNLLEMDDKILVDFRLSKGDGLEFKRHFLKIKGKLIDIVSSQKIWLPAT
The experiment in a line: Inhibiting Assay: The compounds of the invention were tested for activity against Chk-1 kinase using the materials and protocols set out below. Reaction Buffer: Base Reaction buffer: 20 mM Hepes (pH 7.5), 10 mM MgCl2, 1 mM EGTA, 0.02% Brij35, 0.02 mg/ml BSA, 0.1 mM Na3VO4, 2 mM DTT, 1% DMSO. Required cofactors are added individually to each kinase reaction Reaction Procedure:(i) Prepare indicated substrate in freshly prepared Base Reaction Buffer(ii) Deliver any required cofactors to the substrate solution above(iii) Deliver indicated kinase into the substrate solution and gently mix(iv) Deliver compounds in DMSO into the kinase reaction mixture(v) Deliver 33P-ATP (specific activity 0.01 μCi/μl final) into the reaction mixture to initiate the reaction.(vi) Incubate kinase reaction for 120 minutes at room temperature(vii) Reactions are spotted onto P81 ion exchange paper (Whatman #3698-915)(viii) Wash filters extensively in 0.1% phosphoric acid.(ix) Measure counts in scintillation counter. Type of assay: […].

`N#Cc1cnc(NC(=O)Nc2ccc(CCNCc3ccc(F)cc3)c(Br)c2)cn1`: the IC50 came out at 19 nM.
